Test [1] relates to human corneal endothelial cells. As to the kind of experiment: Corneal endothelial wound healing in vitro. The format is cell-based. To be noted: VIP 10^−9, 10^−7 and 10^−6 M; 12 and 24 hours after incubation; vs control. The text has this:
FIG. 9 is a graph showing that VIP treatment of human corneal endothelial cells accelerates corneal endothelial wound healing in vitro in a dose-dependent manner Percentage of healed endothelial area compared to baseline in VIP-treated groups and in control. […] Error bars indicate mean±SEM. Each group consists of n=9, and data from one out of two independent experiments is shown.

The test system of test [2] is corneal endothelial cells. As to the kind of experiment: IFNγ- and TNFα-mediated corneal endothelial cell apoptosis in corneal cups ex vivo (TUNEL). The conditions noted are these: VIP 10^−6 M; 18 hours of incubation. The test is classed as cell-based, C57BL/6. The protocol: FIG. 10A is a set of micrographs and FIG. 10B is a graph showing that VIP suppresses IFNγ- and TNFα-mediated corneal endothelial cell apoptosis. FIG. 10A: Representative confocal micrographs showing nave C57BL/6 corneal cups incubated with either IFNγ or TNFα with or without VIP (10^−12, 10^−9, 10^−6 M). After 18 hours of incubation, corneas were stained for zonula occluden-1 (ZO-1, green) and terminal deoxynucleotidyl transferase-mediated dUTP nick-end labeling assay (TUNEL, red) to visualize endothelial cell-to-cell junctions and apoptotic cells, respectively. The scale bars are equal to 100 μm (magnification ×40). FIG. 10B: Bar diagram showing the percentages of apoptotic (TUNEL-positive) corneal endothelial cells incubated ex vivo with either IFNγ or TNFα with different doses of VIP. […] Data are presented as mean±SEM. Each group consists of n=5 corneas and data from one out of two independent experiments is shown.

Test [3] concerns corneal graft. As to the kind of experiment: Murine model of syngeneic corneal transplantation with endothelial injury. The format is in vivo. An excerpt: FIG. 11A: Representative slit-lamp images showing corneas at week 2-6 post-transplantation (magnification ×25). […] FIG. 11C: Representative confocal micrographs of central area of transplanted corneas isolated from VIP-treated mice and the control groups at week 2, 4 and 6 after transplantation. To visualize corneal endothelial cell-to-cell junctions, corneas were stained with zonula occluden-1 (ZO-1, green). The scale bars are equal to 100 μm (magnification ×40). FIG. 11D: Bar diagram showing central endothelial cell density in VIP-treated corneas and controls at 2, 4 and 6 weeks post-transplantation. Data are presented as mean±SEM. Each group consists of n=6 corneas, and data from one out of two independent experiments is shown.

Test [4] concerns corneal graft. As to the kind of experiment: High-risk allogeneic corneal transplantation. The test is classed as in vivo, mice. The text has this: FIGS. 12A-D are graphs and images showing the effect of VIP treatment on high-risk corneal transplant survival. Animals underwent high-risk allogeneic corneal transplantation and received treatment with VIP at 1, 3, 5, 7 and 9 days after transplantation. […] Each group consists of n=14. FIG. 12C: Representative confocal micrographs of central area of transplanted corneas in VIP-treated mice and in controls at 1, 2 and 8 weeks post-transplantation. Corneal endothelial cell-to-cell junction were stained and visualized with zonula occluden-1 (ZO-1, green). The scale bars are equal to 100 μm (magnification ×40). […] Horizontal line represents the CEnC density of nave age-matched C57BL/6 corneas. Each group consists of n=5 corneas. All data are presented as mean±SEM, and data from one out of two independent experiments is shown.

No end group written: not given here.

With “VIP: vasoactive intestinal polypeptide, a neuropeptide; exemplary human sequence SEQ ID NO: 5 (HSDAVFTDNYTRLRKQMAVKKYLNSILN; ends and bridges not checked; UniProt P01282 125-152, looked up)”, the “wound healing (percentage of healed endothelial area compared to baseline)” value in test [1] is “significantly enhanced wound healing”. Besides, in test [2], the “IFNγ-mediated corneal endothelial cell apoptosis (TUNEL-positive cells)” value was “significantly suppresses” and the “TNFα-mediated corneal endothelial cell apoptosis (TUNEL-positive cells)” value is recorded as “significantly suppresses”. Further, the “corneal endothelial wound healing” value in test [3] (syngeneic transplantation with endothelial injury) is on record as “enhances corneal endothelial wound healing”. Further, the graft opacity scores entry in test [3] (week 2 to 6 post-transplantation, vs control) is “significantly decreased”. Also, the graft opacity scores result in test [4] (4 to 8 weeks post-transplantation, VIP at 1, 3, 5, 7 and 9 days after transplantation) is recorded as “significantly decreased”. Further, the “central CEnC density” value in test [4] (8 weeks post-transplantation, vs control) was “significantly higher”. The “hazard ratio (graft survival, VIP-treated vs controls)” value in test [4] (8 weeks, 95% CI 0.04-0.26, Log rank test) was 0.10. This substance had a graft survival in test [4] (weekly examination for 8 weeks, controls 0%) of 85%.
